Read-outs that look alike come from different tables or passages of the source.
Assays:
[1] = tested on: P388 cells; assay: Antitumor activity: increase in life survival of mice transplanted i.p. with P388 cells; type: in vivo, CDF₁ mice; settings: for ILS (%): intraperitoneally once a day for five days, P388 in CDF₁ mice
Procedure: CDF₁ mice (male, 5 weeks old) were intraperitoneally transplanted with P388 cells at a dose of 1 x 10⁶ cells/mouse.
From the next day of the transplantation, a test compound of the invention in the form of 0.5% carboxymethylcellulose suspension was intraperitoneally administered once a day for consecutive five days. Percent increase in life survival was determined: [formula]

[2] = tested on: platelet aggregation; assay: Platelet aggregation-inhibitory activity in platelet-rich plasma; type: cell-based, rabbit; settings: Oryctolagus cuniculus
Procedure: From rabbit carotid […] was drawn blood (9 volumes) by means of a syringe containing 3.8% aqueous sodium citrate (1 volume). The blood was centrifuged to obtain platelet-rich plasma (PRP: 550,000/µl). Platelet aggregation-inhibitory activity of a compound of the invention was measure using as an aggregation-inducing agent arachidonic acid or collagen. 50%-inhibition concentration (IC₅₀) against the platelet aggregation caused by arachidonic acid (80 µM) and collagen (30 µg/ml) is shown in Table 2 for representative compounds according to the invention.

[3] = Acute toxicity test, oral administration; settings: mouse, in vivo, ICR male mice (7 weeks old), read-out: LD₅₀
Source text: An acute toxicity test was run with ICR male mice (7 weeks old) by an oral administration.

[4] = aggregation caused by arachidonic acid (80 µM), rabbit PRP, read-out: 50%-Inhibition concentration, Arachidonic acid
[5] = aggregation caused by collagen (30 µg/ml), rabbit PRP, read-out: 50%-Inhibition concentration, Collagen

Compound | ILS (%) ([1]; Dose 10 mg/kg/day) | ILS (%) ([1]; Dose 30 mg/kg/day) | ILS (%) ([1]; Dose 100 mg/kg/day) | IC50 [2, 4] [µM] | IC50 [2, 5] [µM] | ILS (%) ([1]; Dose 40 mg/kg/day) | survival days compared with control mice (in words) ([1]; Dose 100 mg/kg/day as stated in the text) | IC50 ([2]; read-out: 50%-Inhibition concentration, Arachidonic acid) [µM] | IC50 ([2]; read-out: 50%-Inhibition concentration, Collagen) [µM] | LD50 [3] [mg/kg]
CC/C=C\C/C=C\C/C=C\C/C=C\C/C=C\CCCC(=O)OC(C)n1cc(F)c(=O)[nH]c1=O (stereo not drawn) [Example 3, 1-(α-5,8,11,14,17-eicosapentaenoyloxy-α-methyl)methyl-5-fluorouracil] | 26.8 | 49.2 | 82.1 | 32 | 140 | – | – | – | – | –
CC/C=C\C/C=C\C/C=C\CCCCCCCC(=O)OC(CC)n1cc(F)c(=O)[nH]c1=O (stereo not drawn) [Example 2, 1-(α-9,12,15-octadecatrienoyloxy-α-ethyl)methyl-5-fluorouracil] | 27.2 | 39.7 | 73.8 | 57 | 530 | – | – | – | – | –
O=c1[nH]cc(F)c(=O)[nH]1 [Example 5-FU, 5-Fluorouracil] | 65.2 | 27.4 | – | – | – | -24.8 | survival days shorter than those for control mice | > 1000 | > 1000 | 309
CC/C=C\C/C=C\C/C=C\CCCCCCCC(=O)OC(C)n1cc(F)c(=O)[nH]c1=O (stereo not drawn) [Example 1, 1-(α-9,12,15-octadecatrienoyloxy-α-methyl)-methyl-5-fluorouracil] | 24.6 | 46.8 | 80.5 | 65 | 340 | – | – | – | – | –
